Laboratory results reported in patent US11020391B2, “CRMP2 sumoylation inhibitors and uses thereof” (ARIZONA BOARD OF REGENTS ON BEHALF OF THE UNIVERSITY OF …, priority 2015, dated 2021).

Key:
[1] = tested on: spared nerve injury model of neuropathic pain; assay: Spared nerve injury model, mechanical hypersensitivity (paw withdrawal threshold); format: in vivo, rat; conditions: spinal administration 5 μg/10 μL; 7 days post-injury; n=6
Protocol: Rat Behavioral Pain Assay: Compound AZ002 reversed mechanical hypersensitivity in a model of nerve-injury induced chronic pain.
Data was analyzed using one-way ANOVA followed by Dunnett's Multiple Comparison Test using post injury baseline as control.
Indwelling intrathecal catheter: Rats were anesthetized (ketamine/xylazine anesthesia, 80/12 mg/kg i.p.; Sigma-Aldrich) and placed in a stereotaxic head holder. The cisterna magna was exposed and incised, and an 8-cm catheter (PE-10; Stoelting) was implanted terminating in the lumbar region of the spinal cord. Catheters were sutured (3-0 silk suture) into the deep muscle and externalized at the back of the neck; skin was closed with autoclips. After a recovery period of 5-7 days after implantation of the indwelling cannula, the spared nerve injury was induced.
Spared Nerve Injury (SNI): Under isoflurane anesthesia (5% induction, 2.0% maintenance in 2 L/min air), skin on the lateral surface of the left hind thigh was incised. […]
Mechanical Allodynia: Rats were allowed to acclimate within suspended wire mesh cages for 30 minutes prior to behavioral assessment. […] Paw withdrawal thresholds were calculated in grams using the Dixon non-parametric test and expressed as the Paw Withdrawal Threshold (mean±standard error; SEM) in GraphPad Prism 6.0. […]

[2] = PK profile of compound AZ002; conditions: in vivo
Excerpt: In some instances, compounds of the invention are provided as a pharmaceutical acceptable salt. Suitable pharmaceutical acceptable salts include those disclosed herein. In some embodiments, pharmaceutically acceptable salts of compounds of the invention provide a better pharmacokinetics.

[3] = tested on: human DRGs in a mixed glia-DRG co-culture; assay: Cell morphology or health of human DRGs after overnight incubation; format: cell-based
[4] = tested on: TTX-S NaV1.7 currents in human DRGs; assay: Patch clamp H-infinity subtracted NaV1.7 currents in human DRGs; format: cell-based; conditions: FIG. 5
Protocol: Patch Clamp Electrophysiology: Whole cell voltage clamp and current clamp recordings were performed at room temperature using an EPC 10 Amplifier-HEKA. The internal solution for voltage clamp CAD cell recordings contained (in mM): 110CsCl, 5 MgSO4, 10 EGTA, 4 ATP Na2-ATP, and 25 HEPES (pH 7.3, 290-310 mOsm/L) and external solution contained (in mM): 100 NaCl, 10 tetraethylammonium chloride, 1 CaCl2, 1 CdCl2, 1 MgCl2, 10 D-glucose, 4 4-aminopyridine, 0.1 NiCl2, 10 HEPES (pH 7.3, 310-315 mosM/L). For DRG and HEK293 cells the internal solution for voltage clamp contained (in mM): 140CsF, 1.1Cs-EGTA, 10 NaCl, and 15 HEPES (pH 7.3, 290-310 mOsm/L) and external solution contained (in mM): 140 NaCl, 3 KCl, 30 tetraethylammonium chloride, 1 CaCl2, 0.5 CdCl2, 1 MgCl2, 10 D-glucose, 10 HEPES (pH 7.3, 310-315 mosM/L). […]
Voltage clamp protocols: CAD and HEK293 cells were subjected to current-density (I-V) and fast-inactivation voltage protocols. […] The TTX-R peak current density was always measured at depolarizations near 0 mV and within 10 ms of the voltage step protocol. […] Thus, sodium current present at 150 ms following a voltage pulse to −60 mV was analyzed, an established method of isolating Nav1.9 current. […]

[5] = tested on: TTX-S NaV1.7 currents in rat DRGs; assay: Patch clamp TTX-S NaV1.7 currents in rat DRGs; format: cell-based; conditions: FIG. 5
Protocol: Culturing and Transfection of rat Primary Dorsal Root Ganglia (DRG) Neurons: Rat DRG neurons were isolated from 150-174 g Sprague-Dawley rats and then transfected using known procedures. In brief, removing dorsal skin and muscle and cutting the vertebral bone processes parallel to the dissection stage exposed DRGs. DRGs were then collected, trimmed at their roots, and digested in 3 ml bicarbonate free, serum free, sterile DMEM (Cat #11965, Thermo Fisher Scientific, Waltham, Mass.) solution containing neutral protease (3.125 mg·ml-1, Cat #LS02104, Worthington, Lakewood, N.J.) and collagenase Type I (5 mg·ml-1, Cat #LS004194, Worthington, Lakewood, N.J.) and incubated for 45 min at 37° C. under gentile agitation. Dissociated DRG neurons (˜1.5×106) were then gently centrifuged to collect cells and washed with DRG media DMEM containing 1% penicillin/streptomycin sulfate from 10 000 μg/ml stock, 30 ng.ml-1 nerve growth factor, and 10% fetal bovine serum (Hyclone). Collected cells were re-suspended in Nucleofector transfection reagent containing plasmids or siRNA at the working concentrations listed above. Then, cells were subjected to electroporation protocol O-003 in an Amaxa Biosystem (Lonza, Basel, Switzerland) and plated onto poly-D-lysine—and laminin-coated glass 12- or 15-mm coverslips. Transfection efficiencies were routinely between 20% and 30% with about ˜10% cell death. […]

Compound: COc1cc(OC)cc(C(=O)Nc2ccc(N3CCN(C)CC3)cc2)c1 [AZ002]
- reversal of mechanical hypersensitivity [1]: significantly reversed
- Cmax [2]: 263 ng/mL
- Tmax [2]: 2 h
- half-life [2]: 5.8 h
- AUC(0-t) ([2]; 0-24 hr): 2380 ng·h/mL
- bioavailability ([2]; read-out: bioavailability (F)): 31%
- effect on cell morphology or health [3]: does not affect cell morphology or health
- inhibition of TTX-S NaV1.7 currents [4]: inhibits
- inhibition of TTX-S NaV1.7 currents [5]: inhibits
